Assay results reported in PubChem BioAssay (NCI).
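Five concentrations, 48 hours, 96-well plates. GI50 marks 50% less growth. TGI is the concentration that stops growth completely.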

How the values were obtained:
Assay in all cases: NCI anticancer screen, dose series, 48 h
[1] = test system: HCT-116 colon
[2] = test system: NCI-H226 lung
[3] = test system: OVCAR-3 ovarian
[4] = test system: U251 CNS
[5] = test system: EKVX NSCLC
[6] = test system: SK-MEL-28 melanoma
[7] = test system: BT-549 breast
[8] = test system: HS 578T breast
[9] = test system: HL-60(TB) leukemia
[10] = test system: DU-145 prostate
[11] = test system: A498 renal

| Structure (SMILES) | TGI [1] | TGI [2] | TGI [3] | TGI [4] | TGI [5] | TGI [6] | TGI [7] | TGI [8] | TGI [9] | TGI [10] | TGI [11] | GI50 [11] | GI50 [4] | GI50 [6] | GI50 [7] | GI50 [10] |
| --- | --- | --- | --- | --- | --- | --- | --- | --- | --- | --- | --- | --- | --- | --- | --- | --- |
| COc1ccc2c(c1OC)C(=O)N/C2=C\c1c(CCN(C)C)cc2c(c1OC)OCO2 | > 100 µM | > 100 µM | > 100 µM | > 100 µM | > 100 µM | > 100 µM | > 100 µM | > 100 µM | > 100 µM | > 100 µM |  |  |  |  |  |  |
| O=C(O)c1ccc([C@@H]2C(=O)N(O)[C@@H]3C=CC[C@@H]32)cc1 |  | > 100 µM | > 100 µM |  | > 100 µM | > 100 µM |  |  | > 100 µM |  |  |  |  |  |  |  |
| CN1CC2=C(NC(=S)NC2c2ccccc2Cl)/C(=C/c2ccccc2Cl)C1 (stereo unspecified) | > 100 µM | > 100 µM | > 100 µM | > 100 µM | > 100 µM | > 100 µM |  | > 100 µM | 62.6 µM | > 100 µM | > 100 µM |  |  |  |  |  |
| C=C1c2nc3ccccc3n2C=C(c2ccc(Cl)cc2)N1c1ccc(OCCN2CCCCC2)cc1 | > 45 µM | > 100 µM | > 45 µM | > 100 µM | > 100 µM | > 100 µM | > 100 µM |  | 45 µM | > 100 µM | > 100 µM | > 100 µM | 3.75 µM | 32.8 µM | > 100 µM | > 100 µM |
| NC(=O)CCC(NC(=O)c1c2ccccc2nc2ccccc12)C(=O)O (stereo unspecified) | > 100 µM | > 100 µM | > 100 µM | > 100 µM | > 100 µM | > 100 µM | > 100 µM |  |  | > 100 µM | > 100 µM |  |  |  |  |  |
| CC1=CC(=O)N(n2c(Cc3ccc(Cl)cc3)n[nH]c2=O)C1=O | > 100 µM | > 100 µM | > 100 µM | > 100 µM | > 100 µM |  | > 100 µM | > 100 µM |  | > 100 µM | > 100 µM |  |  |  |  |  |
| NC(CCCCNCc1ccccc1)C(=O)O (stereo unspecified) | > 100 µM | > 100 µM | > 100 µM | > 100 µM | > 100 µM | > 100 µM |  |  | > 100 µM |  | > 100 µM |  |  |  |  |  |
| C=CCCCC1(C)CCNC1=S (stereo unspecified) | > 100 µM |  | > 100 µM | > 100 µM | > 100 µM | > 100 µM | > 100 µM | > 100 µM |  | > 100 µM | > 100 µM |  |  |  |  |  |
| CC(=O)NNc1nc(C)c(C(=O)/C=C/c2ccc(Cl)c(Cl)c2)s1 |  |  | > 100 µM | > 100 µM | > 100 µM | > 100 µM |  |  | > 100 µM |  | > 100 µM |  |  |  |  |  |
| Cc1cc(C)nc(NS(=O)(=O)c2ccc(NC(=O)NC(F)(F)F)cc2)n1 | > 100 µM |  |  | > 100 µM | > 100 µM | > 100 µM | > 100 µM | > 100 µM | > 100 µM |  | > 100 µM |  |  |  |  |  |
| CC(C)C(Sc1nc(-c2ccccc2)c(-c2ccccc2)[nH]1)c1n[nH]c(=S)n1-c1ccccc1 (stereo unspecified) | > 100 µM | > 100 µM | 45.9 µM | 61.3 µM | 65.4 µM | 70.2 µM |  |  | 47.1 µM |  | > 100 µM |  |  |  |  |  |
| COc1ccc(/C=C/C(=O)c2sc(-c3cccnc3)nc2C)cc1 |  | > 100 µM | 88.3 µM | > 100 µM | > 100 µM | > 100 µM |  |  | 48.1 µM |  | > 100 µM |  |  |  |  |  |
| COc1ccccc1NC(=O)CC(=O)N1N=C(c2ccccc2)C(N=Nc2ccc(Cl)cc2)C1=O (stereo unspecified) | > 100 µM | > 100 µM | 74.3 µM | > 100 µM | > 100 µM | > 100 µM |  |  | > 100 µM |  | 35.2 µM |  |  |  |  |  |
| O=C1CC2CC(CC3(CO3)C2)C1F (stereo unspecified) | > 100 µM | > 100 µM |  | > 100 µM | > 100 µM | > 100 µM |  | > 100 µM | > 100 µM | > 100 µM | > 100 µM |  |  |  |  |  |
| Cc1nc2c3c(ccc2[nH]c1=O)C(=O)c1ccccc1C3=O | > 100 µM | > 100 µM | > 100 µM | > 100 µM | > 100 µM | > 100 µM |  |  | > 100 µM |  | > 100 µM |  |  |  |  |  |
| COc1ccc(/C=C2\CCC(CCN3CCOCC3)C2=O)cc1 (stereo unspecified) | > 100 µM | > 100 µM | > 100 µM |  | > 100 µM | > 100 µM |  |  | > 100 µM |  | > 100 µM |  |  |  |  |  |
| COc1ccc2c(c1)[n+]([O-])c(/C(C)=N/NC(=O)c1ccccc1O)c(C)[n+]2[O-] | > 100 µM | > 100 µM | > 100 µM | > 100 µM | > 100 µM | > 100 µM |  |  | > 100 µM |  |  |  |  |  |  |  |
| NC(N)=NS(=O)(=O)c1ccc(NC(=O)c2cccc3c(N)c4ccccc4nc23)cc1 | > 100 µM | > 100 µM | > 100 µM | > 100 µM | > 100 µM | > 100 µM |  |  |  |  | > 100 µM |  |  |  |  |  |
| O=c1[nH]c(=O)n(CCOc2ccc(Cl)cc2)cc1Nc1ccccc1 | > 100 µM |  | > 100 µM | > 100 µM | > 100 µM | > 100 µM |  | > 100 µM | > 100 µM | > 100 µM | > 100 µM |  |  |  |  |  |
| Cc1cc(S(=O)(=O)NC(=NCCc2ccccc2)NN)c(S)cc1Cl | 71.1 µM | 66.3 µM | 74.8 µM | 32.4 µM | > 100 µM | 71.3 µM | 66.2 µM | 59.1 µM | > 100 µM | 34.6 µM |  |  |  |  |  |  |
| CC(C)c1ccc(/C=C/c2cc(C(=O)NNC(=O)NC3CCCCC3)nc(=S)[nH]2)cc1 | > 100 µM | > 100 µM | > 100 µM | > 100 µM | > 100 µM | > 100 µM |  |  |  |  | > 100 µM |  |  |  |  |  |
| CC(C)(C)[Si](C)(C)OCC1OC(n2ccc(=O)[nH]c2=O)C(O[Si](C)(C)C(C)(C)C)[C@]12O[C@@H]2CO (stereo partly specified) | 39 µM | 30.7 µM | 28.4 µM | 42.6 µM | 36.6 µM | 34.6 µM | 19.4 µM |  |  | 38.1 µM | 38.7 µM |  |  |  |  |  |
| O=C(Cc1nc2ccc([N+](=O)[O-])cc2[nH]c1=O)C(=O)Nc1ccccc1[N+](=O)[O-] | > 100 µM | > 100 µM | > 100 µM |  | > 100 µM | > 100 µM |  |  | > 100 µM |  | > 100 µM |  |  |  |  |  |
| C#CCOCn1cc(C)c(=O)[nH]c1=O | > 100 µM | > 100 µM |  | > 100 µM | > 100 µM | > 100 µM |  | > 100 µM | > 100 µM | > 100 µM | > 100 µM |  |  |  |  |  |
